The record followed here is ChEMBL document CHEMBL4043197, “Quinazoline-1-deoxynojirimycin hybrids as high active dual inhibitors of EGFR and α-glucosidase” (Bioorg Med Chem Lett, 2017).

Experiment [1] is described as follows: Inhibition of recombinant alpha-glucosidase (unknown origin) using PNP-G as substrate preincubated for 5 mins followed by substrate addition measured after 30 mins by spectrophotometric analysis. The arrangement: species or system Homo sapiens.
The target of experiment [2] is T1, Epidermal growth factor receptor (Homo sapiens, UniProt P00533). As to the kind of experiment: Inhibition of wild type recombinant EGFR (unknown origin) by ELISA. On the technique in general: ELISA stands for enzyme-linked immunosorbent assay.
For experiment [3], the target named is T1, Epidermal growth factor receptor. The conditions noted are these: at 50 nM.
Description: Inhibition of wild type recombinant EGFR (unknown origin) at 50 nM by ELISA relative to control

Structures can show the parent of a compound that is named as a salt.

T1 sequence (P00533 whole entry): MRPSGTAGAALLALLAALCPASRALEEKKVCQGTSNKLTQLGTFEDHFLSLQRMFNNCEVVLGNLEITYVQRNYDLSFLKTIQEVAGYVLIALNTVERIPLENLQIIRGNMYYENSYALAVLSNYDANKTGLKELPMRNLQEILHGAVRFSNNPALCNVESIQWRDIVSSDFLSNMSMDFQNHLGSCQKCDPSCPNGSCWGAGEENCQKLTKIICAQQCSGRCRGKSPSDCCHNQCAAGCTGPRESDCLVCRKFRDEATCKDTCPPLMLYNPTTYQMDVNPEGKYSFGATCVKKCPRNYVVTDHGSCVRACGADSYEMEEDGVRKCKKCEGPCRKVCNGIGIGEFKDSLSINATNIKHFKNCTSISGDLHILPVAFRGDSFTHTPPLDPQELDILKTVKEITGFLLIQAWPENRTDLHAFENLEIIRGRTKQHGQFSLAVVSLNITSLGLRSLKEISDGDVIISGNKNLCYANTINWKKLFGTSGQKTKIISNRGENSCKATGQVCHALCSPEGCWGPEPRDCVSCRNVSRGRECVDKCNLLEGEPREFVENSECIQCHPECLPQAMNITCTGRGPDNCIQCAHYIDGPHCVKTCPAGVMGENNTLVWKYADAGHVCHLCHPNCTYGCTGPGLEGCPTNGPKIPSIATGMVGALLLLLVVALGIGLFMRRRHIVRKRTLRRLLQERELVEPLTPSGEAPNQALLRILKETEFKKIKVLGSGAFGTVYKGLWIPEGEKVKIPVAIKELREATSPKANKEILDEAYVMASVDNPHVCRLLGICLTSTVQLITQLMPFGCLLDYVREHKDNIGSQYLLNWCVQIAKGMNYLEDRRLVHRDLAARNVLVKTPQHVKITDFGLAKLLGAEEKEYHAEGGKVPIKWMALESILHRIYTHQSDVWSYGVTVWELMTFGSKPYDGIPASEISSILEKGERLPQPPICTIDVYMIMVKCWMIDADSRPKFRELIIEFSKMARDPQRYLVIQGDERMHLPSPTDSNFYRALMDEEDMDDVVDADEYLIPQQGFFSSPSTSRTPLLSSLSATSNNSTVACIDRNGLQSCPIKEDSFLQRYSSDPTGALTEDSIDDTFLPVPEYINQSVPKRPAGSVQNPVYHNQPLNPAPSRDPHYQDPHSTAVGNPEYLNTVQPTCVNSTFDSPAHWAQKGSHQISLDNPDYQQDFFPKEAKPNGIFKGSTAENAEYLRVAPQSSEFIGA

`OC[C@H]1NC[C@H](O)[C@@H](O)[C@@H]1O` [DUVOGLUSTAT HYDROCHLORIDE]: the half-inhibitory concentration (IC50) in experiment [1] came out at 0.07 µM.
In the case of `COc1cc2c(Nc3ccc(OCc4cccc(F)c4)c(Cl)c3)ncnc2cc1OCCCN1C[C@H](O)[C@@H](O)[C@H](O)[C@H]1CO`, the IC50 was 4.53 nM in experiment [2] and 0.14 µM in experiment [1]. In experiment [3], this molecule returned an inhibition of 78.2%.
The like results for `COc1cc2c(Nc3ccc(F)c(Cl)c3)ncnc2cc1OCCCN1C[C@H](O)[C@@H](O)[C@H](O)[C@H]1CO` were, in that order, 1.79 nM, 0.39 µM and 85.3%.
The like results for `COc1cc2ncnc(Nc3ccc(F)c(Cl)c3)c2cc1OCCCN1C[C@H](O)[C@@H](O)[C@H](O)[C@H]1CO` were, in that order, 10.7 nM, 4.34 µM and 83.5%.
Regarding `C#Cc1cccc(Nc2ncnc3cc(OC)c(OCCN4C[C@H](O)[C@@H](O)[C@H](O)[C@H]4CO)cc23)c1`, in experiment [3], the inhibition stood at 56.4%. In addition, the IC50 in experiment [1] was 7.18 µM.
`OC[C@@H]1[C@@H](O)[C@H](O)[C@@H](O)CN1Cc1ccc(-c2ccc3ncnc(Nc4ccc(F)c(Cl)c4)c3c2)o1` came in with an inhibition in experiment [3] of 78%.
Consider `COc1cc2ncnc(Nc3ccc(F)c(Cl)c3)c2cc1OCCN1C[C@H](O)[C@@H](O)[C@H](O)[C@H]1CO`, for which, in experiment [3], the inhibition worked out at 65.2%. The IC50 in experiment [1] worked out at 8.4 µM.
The like results for `C#Cc1cccc(Nc2ncnc3cc(OC)c(OCCCN4C[C@H](O)[C@@H](O)[C@H](O)[C@H]4CO)cc23)c1` were, in that order, 79.6% and 6.19 µM.
The like results for `C#Cc1cccc(Nc2ncnc3cc(OCCN4C[C@H](O)[C@@H](O)[C@H](O)[C@H]4CO)c(OC)cc23)c1` were, in that order, 53.5% and 6.25 µM.
With `COc1cc2ncnc(Nc3ccc(OCc4cccc(F)c4)c(Cl)c3)c2cc1OCCCN1C[C@H](O)[C@@H](O)[C@H](O)[C@H]1CO`, in experiment [3], the inhibition was found to be 74.9%. Further, in experiment [1], the IC50 is 21.2 µM.
For the molecule `COc1cc2ncnc(Nc3ccc(OCc4cccc(F)c4)c(Cl)c3)c2cc1OCCN1C[C@H](O)[C@@H](O)[C@H](O)[C@H]1CO`, the inhibition in experiment [3] stood at 66.5%. In addition, the IC50 in experiment [1] is 64.1 µM.
In the case of `C#Cc1cccc(Nc2ncnc3ccc(-c4ccc(CN5C[C@H](O)[C@@H](O)[C@H](O)[C@H]5CO)o4)cc23)c1`, in experiment [3], the inhibition came out at 27.1%.
On to `C#Cc1cccc(Nc2ncnc3cc(OCCCN4C[C@H](O)[C@@H](O)[C@H](O)[C@H]4CO)c(OC)cc23)c1`, for which the values for the IC50 in experiment [2] and in experiment [1] were 4.87 nM and 0.09 µM, respectively. Besides, in experiment [3], the inhibition is 83.2%.
In experiment [3], `OC[C@@H]1[C@@H](O)[C@H](O)[C@@H](O)CN1Cc1ccc(-c2ccc3ncnc(Nc4ccc(OCc5cccc(F)c5)c(Cl)c4)c3c2)o1` displayed an inhibition of 50.6%.
Turning to `OCCN1C[C@H](O)[C@@H](O)[C@H](O)[C@H]1CO` [MIGLITOL], the IC50 in experiment [1] amounted to 2.43 µM.
In experiment [3], `COc1cc2c(Nc3ccc(F)c(Cl)c3)ncnc2cc1OCCN1C[C@H](O)[C@@H](O)[C@H](O)[C@H]1CO` returned an inhibition of 53.7%. Also, in experiment [1], the IC50 stood at 0.25 µM.

A word on the IC50: it is the concentration at which inhibition is half-maximal. The inhibition is the percentage by which the read-out fell short of the control. Low values mean a response near the control, high ones a response far below the control.
